Reference: the supplement of paper PMC11061612

Tests used:
Olaparib = compound: O=C(c1cc(Cc2n[nH]c(=O)c3ccccc23)ccc1F)N1CCN(C(=O)C2CC2)CC1 [Olaparib]
How it was run: (§1)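 Viability was measured with CellTiter-Glo 2.0 luminescence after 72 hours of dosing at a final DMSO of typically 0.2%, and scaled between blank-well and DMSO-well means. Beforehand, cancer cell lines sat 24 hours at 37°C and 5% CO2 in 1536-well plates in 7.5 μl DMEM/F12 or RPMI with 10% FBS. A non-linear mixed effects model fitted two-parameter logistic curves to the dose responses. The single-agent IC50 comes from these fits.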

AZD0156 = compound: CN(C)CCCOc1ccc(-c2ccc3ncc4c(c3c2)n(C2CCOCC2)c(=O)n4C)cn1 [AZD0156]
How it was run: as §1

Capivasertib = compound: C1CN(CCC1(C(=O)N[C@@H](CCO)C2=CC=C(C=C2)Cl)N)C3=NC=NC4=C3C=CN4 [Capivasertib]
How it was run: as §1

AZD1775 = compound: C=CCn1c(=O)c2cnc(Nc3ccc(N4CCN(C)CC4)cc3)nc2n1-c1cccc(C(C)(C)O)n1 [AZD1775]
How it was run: as §1

Alisertib = compound: COc1cc(Nc2ncc3c(n2)-c2ccc(Cl)cc2C(c2c(F)cccc2OC)=NC3)ccc1C(=O)O [Alisertib]; details: max 10 µM
How it was run: as §1

AZD4320 = compound: CN(CC[C@H](CSC1=CC=CC=C1)NC2=C(C=C(C=C2)S(=O)(=O)NC(=O)C3=CC=C(C=C3)N4CCC(CC4)[C@H](C5=CC=CC=C5C6=CC=C(C=C6)Cl)O)S(=O)(=O)C(F)(F)F)CCO [AZD4320]; details: max 1 µM
How it was run: as §1

Selumetinib = compound: Cn1cnc2c(F)c(Nc3ccc(Br)cc3Cl)c(C(=O)NOCCO)cc21 [Selumetinib]; details: max 10 µM
How it was run: as §1

Trametinib = compound: CC(=O)Nc1cccc(-n2c(=O)n(C3CC3)c(=O)c3c(Nc4ccc(I)cc4F)n(C)c(=O)c(C)c32)c1 [Trametinib]; details: max 1 µM
How it was run: as §1

AZD6738 = compound: C[C@@H]1COCCN1C2=NC(=NC(=C2)C3(CC3)[S@](=N)(=O)C)C4=C5C=CNC5=NC=C4 [AZD6738]; details: max 10 µM
How it was run: as §1

Lapatinib = compound: CS(=O)(=O)CCNCc1ccc(-c2ccc3ncnc(Nc4ccc(OCc5cccc(F)c5)c(Cl)c4)c3c2)o1 [Lapatinib]; details: max 10 µM
How it was run: as §1

Crizotinib = compound: C[C@@H](Oc1cc(-c2cnn(C3CCNCC3)c2)cnc1N)c1c(Cl)ccc(F)c1Cl [Crizotinib]; details: max 10 µM
How it was run: as §1

AZD7648 = compound: Cc1cc2ncnn2cc1Nc1ncc2c(n1)n(C1CCOCC1)c(=O)n2C [AZD7648]; details: max 10 µM
How it was run: as §1

AZD5991 = compound: Cc1c2c(nn1C)CSCc1cc(n(C)n1)CSc1cc(c3ccccc3c1)OCCCc1c(C(=O)O)n(C)c3c-2c(Cl)ccc13 [AZD5991]; details: max 1 µM
How it was run: as §1

SN-38 = compound: CCc1c2c(nc3ccc(O)cc13)-c1cc3c(c(=O)n1C2)COC(=O)[C@]3(O)CC [SN-38]; details: max 0.3 µM
How it was run: as §1

Taselisib = compound: Cc1nc(-c2cn3c(n2)-c2ccc(-c4cnn(C(C)(C)C(N)=O)c4)cc2OCC3)n(C(C)C)n1 [Taselisib]; details: max 10 µM
How it was run: as §1

AZD5153 = compound: COc1nnc2ccc(N3CCC(c4ccc(OCCN5CCN(C)C(=O)[C@H]5C)cc4)CC3)nn12 [AZD5153]; details: max 1 µM
How it was run: as §1

Palbociclib = compound: CC(=O)c1c(C)c2cnc(Nc3ccc(N4CCNCC4)cn3)nc2n(C2CCCC2)c1=O [Palbociclib]; details: max 10 µM
How it was run: as §1

Prexasertib = compound: COc1cccc(OCCCN)c1-c1cc(Nc2cnc(C#N)cn2)n[nH]1 [Prexasertib]; details: max 1 µM
How it was run: as §1

Savolitinib = compound: C[C@@H](c1ccc2nccn2c1)n1nnc2ncc(-c3cnn(C)c3)nc21 [Savolitinib]; details: max 1 µM
How it was run: as §1

Gefitinib = compound: COc1cc2ncnc(Nc3ccc(F)c(Cl)c3)c2cc1OCCCN1CCOCC1 [Gefitinib]; details: max 10 µM
How it was run: as §1

SG3199 = compound: CC1=CN2[C@@H](C1)C=NC3=CC(=C(C=C3C2=O)OC)OCCCCCOC4=C(C=C5C(=C4)N=C[C@@H]6CC(=CN6C5=O)C)OC [SG3199]; details: max 0.001 µM
How it was run: as §1

AZD1390 = compound: CC(C)n1c(=O)n(C)c2cnc3cc(F)c(-c4ccc(OCCCN5CCCCC5)nc4)cc3c21 [AZD1390]; details: max 0.3 µM
How it was run: as §1

Venetoclax = compound: CC1(C)CCC(CN2CCN(c3ccc(C(=O)NS(=O)(=O)c4ccc(NCC5CCOCC5)c([N+](=O)[O-])c4)c(Oc4cnc5[nH]ccc5c4)c3)CC2)=C(c2ccc(Cl)cc2)C1 [Venetoclax]; details: max 1 µM
How it was run: as §1

AZD8186 = compound: C[C@@H](Nc1cc(F)cc(F)c1)c1cc(C(=O)N(C)C)cc2c(=O)cc(N3CCOCC3)oc12 [AZD8186]; details: max 3 µM
How it was run: as §1

AZD2811 = compound: CCN(CCO)CCCOc1ccc2c(Nc3cc(CC(=O)Nc4cccc(F)c4)[nH]n3)ncnc2c1 [AZD2811]; details: max 1 µM
How it was run: as §1

Doxorubicin = compound: COc1cccc2c1C(=O)c1c(O)c3c(c(O)c1C2=O)C[C@@](O)(C(=O)CO)C[C@@H]3O[C@H]1C[C@H](N)[C@H](O)[C@H](C)O1 [Doxorubicin]; details: max 1 µM
How it was run: as §1

Dasatinib = compound: CC1=C(C(=CC=C1)Cl)NC(=O)C2=CN=C(S2)NC3=CC(=NC(=N3)C)N4CCN(CC4)CCO [Dasatinib]; details: max 2 µM
How it was run: as §1

Cell Line | IC50, cell viability 72 h (Olaparib; max 3 µM) | IC50, cell viability 72 h (AZD0156; max 3 µM) | IC50, cell viability 72 h (Capivasertib; max 3 µM) | IC50, cell viability 72 h (AZD1775; max 3 µM) | IC50, cell viability 72 h (Olaparib; max 10 µM) | IC50, cell viability 72 h (Alisertib) | IC50, cell viability 72 h (AZD4320) | IC50, cell viability 72 h (Selumetinib) | IC50, cell viability 72 h (Trametinib) | IC50, cell viability 72 h (AZD6738) | IC50, cell viability 72 h (Lapatinib) | IC50, cell viability 72 h (Crizotinib) | IC50, cell viability 72 h (AZD7648) | IC50, cell viability 72 h (AZD5991) | IC50, cell viability 72 h (SN-38) | IC50, cell viability 72 h (Taselisib) | IC50, cell viability 72 h (Capivasertib; max 10 µM) | IC50, cell viability 72 h (AZD5153) | IC50, cell viability 72 h (Palbociclib) | IC50, cell viability 72 h (Prexasertib) | IC50, cell viability 72 h (Savolitinib) | IC50, cell viability 72 h (Gefitinib) | IC50, cell viability 72 h (SG3199) | IC50, cell viability 72 h (AZD1390) | IC50, cell viability 72 h (Venetoclax) | IC50, cell viability 72 h (AZD8186) | IC50, cell viability 72 h (AZD2811) | IC50, cell viability 72 h (Doxorubicin) | IC50, cell viability 72 h (Dasatinib) | IC50, cell viability 72 h (AZD0156; max 1 µM) | IC50, cell viability 72 h (AZD1775; max 1 µM)
CHP-134 (Neuroblastoma) | > 3000 nM | > 3000 nM | > 3000 nM | 646 nM | – | – | – | – | – | – | – | – | – | – | – | – | – | – | – | – | – | – | – | – | – | – | – | – | – | – | –
Detroit562 (Head and Neck Carcinoma) | – | > 3000 nM | – | 430 nM | > 10000 nM | 760 nM | > 1000 nM | > 10000 nM | > 1000 nM | 2150 nM | 2020 nM | 1680 nM | > 10000 nM | > 1000 nM | 22 nM | 355 nM | 6950 nM | 65.2 nM | > 10000 nM | 29.5 nM | > 1000 nM | > 10000 nM | > 1 nM | > 300 nM | > 1000 nM | > 3000 nM | 188 nM | > 1000 nM | 115 nM | – | –
FTC-133 (Thyroid Gland Carcinoma) | – | – | – | – | > 10000 nM | 8360 nM | > 1000 nM | > 10000 nM | > 1000 nM | 4690 nM | > 10000 nM | > 10000 nM | > 10000 nM | 999 nM | 6.51 nM | > 10000 nM | 8760 nM | 657 nM | > 10000 nM | 29.2 nM | > 1000 nM | > 10000 nM | > 1 nM | > 300 nM | > 1000 nM | > 3000 nM | > 1000 nM | 352 nM | > 2000 nM | > 1000 nM | 968 nM
HeLa (Cervical Carcinoma) | – | > 3000 nM | – | 893 nM | > 10000 nM | > 10000 nM | > 1000 nM | > 10000 nM | > 1000 nM | > 10000 nM | > 10000 nM | > 10000 nM | > 10000 nM | > 1000 nM | > 300 nM | > 10000 nM | > 10000 nM | > 1000 nM | > 10000 nM | 105 nM | > 1000 nM | > 10000 nM | > 1 nM | > 300 nM | > 1000 nM | > 3000 nM | > 1000 nM | > 1000 nM | > 2000 nM | – | –
Hs-746T (Gastric Carcinoma) | – | > 3000 nM | – | 1440 nM | > 10000 nM | > 10000 nM | > 1000 nM | > 10000 nM | 254 nM | 9890 nM | > 10000 nM | 683 nM | > 10000 nM | > 1000 nM | > 300 nM | > 10000 nM | > 10000 nM | 833 nM | > 10000 nM | 66.4 nM | 40.9 nM | > 10000 nM | > 1 nM | > 300 nM | > 1000 nM | > 3000 nM | > 1000 nM | > 1000 nM | > 2000 nM | – | –
